Data: paper PMC6106931 (Alzheimer's Research & Therapy, 2018)

Experiment: Clinical safety, Study ALZ1005
Format: in vivo, human
Settings: for patients with one or more TEAEs: Caucasian early AD; for Subjects with any TEAE / TEAE: Accidental overdose / TEAE: Anxiety / TEAE: Bladder cancer / TEAE: Conjunctivitis / TEAE: Dementia Alzheimer’s type / TEAE: Depressed mood / TEAE: Dermatitis allergic / TEAE: Dizziness / TEAE: Eczema vesicular / TEAE: Fatigue / TEAE: Gastrointestinal disorders / TEAE: General disorders and administration site conditions / TEAE: Headache / TEAE: Hypertension / TEAE: Infections and infestations / TEAE: Injury, poisoning and procedural complications / TEAE: Insomnia / TEAE: Irritability / TEAE: Musculoskeletal and connective tissue disorders / TEAE: Nasopharyngitis / TEAE: Nausea / TEAE: Neck pain / TEAE: Neoplasms benign, malignant and unspecified / TEAE: Nervous system disorders / TEAE: Post lumbar puncture syndrome / TEAE: Psoriasis / TEAE: Psychiatric disorders / TEAE: Renal and urinary disorders / TEAE: Renal colic / TEAE: Reproductive system and breast disorders / TEAE: Skin and subcutaneous tissue disorders / TEAE: Somnolence / TEAE: Syncope / TEAE: Urticaria / TEAE: Vascular disorders / TEAE: Vulvovaginal candidiasis / TEAE: Vulvovaginal pruritus: MCI due to AD
Method: Safety and tolerability were assessed during the study by recording adverse events (AEs), clinically significant abnormalities, clinical laboratory tests, ECG, and vital signs and by performing physical, neurological, and MRI examinations. All enrolled participants were included in the safety analysis population.

Compound: C[C@@]1(c2cc(NC(=O)c3ccc(C#N)cn3)ccc2F)C=CSC(N)=N1 [atabecestat]
- relevant abnormal neurological finding (10 mg, one participant, day 28): mild ataxia
- events considered possibly related to the study drug (50-mg group): urticaria (n = 1)
- events considered probably related to the study drug (50-mg group): nausea (n = 1), dementia of Alzheimer’s type (n = 1), headache (n = 1)
- tolerability (Caucasian and Japanese, 10 and 50 mg, 4 weeks): well tolerated
- patients with one or more TEAEs (10-mg group, 3 of 15 patients): 20.0%
- patients with one or more TEAEs (50-mg group, 8 of 16 patients): 50.0%
- participants with no microhemosiderin deposits in the brain on MRI at end of treatment (Caucasian, atabecestat groups, 80.6% at baseline): 90.3%
- Subjects with any TEAE (10 mg, N=10): ^2 (20.0) n (%)
- TEAE: Accidental overdose (10 mg, N=10): ^1 (10.^0) n (%)
- TEAE: Anxiety (10 mg, N=10): ^0 n (%)
- TEAE: Bladder cancer (10 mg, N=10): ^0 n (%)
- TEAE: Conjunctivitis (10 mg, N=10): ^0 n (%)
- TEAE: Dementia Alzheimer’s type (10 mg, N=10): ^0 n (%)
- TEAE: Depressed mood (10 mg, N=10): ^0 n (%)
- TEAE: Dermatitis allergic (10 mg, N=10): ^0 n (%)
- TEAE: Dizziness (10 mg, N=10): ^0 n (%)
- TEAE: Eczema vesicular (10 mg, N=10): ^0 n (%)
- TEAE: Fatigue (10 mg, N=10): ^0 n (%)
- TEAE: Gastrointestinal disorders (10 mg, N=10): ^0 n (%)
- TEAE: General disorders and administration site conditions (10 mg, N=10): ^0 n (%)
- TEAE: Headache (10 mg, N=10): ^0 n (%)
- TEAE: Hypertension (10 mg, N=10): ^0 n (%)
- TEAE: Infections and infestations (10 mg, N=10): ^0 n (%)
- TEAE: Injury, poisoning and procedural complications (10 mg, N=10): ^2 (20.0) n (%)
- TEAE: Insomnia (10 mg, N=10): ^0 n (%)
- TEAE: Irritability (10 mg, N=10): ^0 n (%)
- TEAE: Musculoskeletal and connective tissue disorders (10 mg, N=10): ^0 n (%)
- TEAE: Nasopharyngitis (10 mg, N=10): ^0 n (%)
- TEAE: Nausea (10 mg, N=10): ^0 n (%)
- TEAE: Neck pain (10 mg, N=10): ^0 n (%)
- TEAE: Neoplasms benign, malignant and unspecified (10 mg, N=10): ^0 n (%)
- TEAE: Nervous system disorders (10 mg, N=10): ^0 n (%)
- TEAE: Post lumbar puncture syndrome (10 mg, N=10): ^2 (20.^0) n (%)
- TEAE: Psoriasis (10 mg, N=10): ^0 n (%)
- TEAE: Psychiatric disorders (10 mg, N=10): ^0 n (%)
- TEAE: Renal and urinary disorders (10 mg, N=10): ^0 n (%)
- TEAE: Renal colic (10 mg, N=10): ^0 n (%)
- TEAE: Reproductive system and breast disorders (10 mg, N=10): ^0 n (%)
- TEAE: Skin and subcutaneous tissue disorders (10 mg, N=10): ^0 n (%)
- TEAE: Somnolence (10 mg, N=10): ^0 n (%)
- TEAE: Syncope (10 mg, N=10): ^0 n (%)
- TEAE: Urticaria (10 mg, N=10): ^0 n (%)
- TEAE: Vascular disorders (10 mg, N=10): ^0 n (%)
- TEAE: Vulvovaginal candidiasis (10 mg, N=10): ^0 n (%)
- TEAE: Vulvovaginal pruritus (10 mg, N=10): ^0 n (%)
- Subjects with any TEAE (50 mg, N=10): ^6 (60.0) n (%)
- TEAE: Accidental overdose (50 mg, N=10): ^1 (10.^0) n (%)
- TEAE: Anxiety (50 mg, N=10): ^1 (10.^0) n (%)
- TEAE: Bladder cancer (50 mg, N=10): ^0 n (%)
- TEAE: Conjunctivitis (50 mg, N=10): ^0 n (%)
- TEAE: Dementia Alzheimer’s type (50 mg, N=10): ^1 (10.^0) n (%)
- TEAE: Depressed mood (50 mg, N=10): ^1 (10.^0) n (%)
- TEAE: Dermatitis allergic (50 mg, N=10): ^1 (10.^0) n (%)
- TEAE: Dizziness (50 mg, N=10): ^0 n (%)
- TEAE: Eczema vesicular (50 mg, N=10): ^1 (10.^0) n (%)
- TEAE: Fatigue (50 mg, N=10): ^0 n (%)
- TEAE: Gastrointestinal disorders (50 mg, N=10): ^1 (10.0) n (%)
- TEAE: General disorders and administration site conditions (50 mg, N=10): ^0 n (%)
- TEAE: Headache (50 mg, N=10): ^1 (10.^0) n (%)
- TEAE: Hypertension (50 mg, N=10): ^0 n (%)
- TEAE: Infections and infestations (50 mg, N=10): ^1 (10.^0) n (%)
- TEAE: Injury, poisoning and procedural complications (50 mg, N=10): ^2 (20.^0) n (%)
- TEAE: Insomnia (50 mg, N=10): ^0 n (%)
- TEAE: Irritability (50 mg, N=10): ^1 (10.^0) n (%)
- TEAE: Musculoskeletal and connective tissue disorders (50 mg, N=10): ^1 (10.^0) n (%)
- TEAE: Nasopharyngitis (50 mg, N=10): ^0 n (%)
- TEAE: Nausea (50 mg, N=10): ^1 (10·^0) n (%)
- TEAE: Neck pain (50 mg, N=10): ^1 (10.^0) n (%)
- TEAE: Neoplasms benign, malignant and unspecified (50 mg, N=10): ^0 n (%)
- TEAE: Nervous system disorders (50 mg, N=10): ^2 (^20^.0) n (%)
- TEAE: Post lumbar puncture syndrome (50 mg, N=10): ^1 (10.^0) n (%)
- TEAE: Psoriasis (50 mg, N=10): ^0 n (%)
- TEAE: Psychiatric disorders (50 mg, N=10): ^2 (^20^.0) n (%)
- TEAE: Renal and urinary disorders (50 mg, N=10): ^1 (10.^0) n (%)
- TEAE: Renal colic (50 mg, N=10): ^1 (10.^0) n (%)
- TEAE: Reproductive system and breast disorders (50 mg, N=10): ^1 (10.^0) n (%)
- TEAE: Skin and subcutaneous tissue disorders (50 mg, N=10): ^2 (^20^.0) n (%)
- TEAE: Somnolence (50 mg, N=10): ^0 n (%)
- TEAE: Syncope (50 mg, N=10): ^0 n (%)
- TEAE: Urticaria (50 mg, N=10): ^0 n (%)
- TEAE: Vascular disorders (50 mg, N=10): ^0 n (%)
- TEAE: Vulvovaginal candidiasis (50 mg, N=10): ^1 (10.^0) n (%)
- TEAE: Vulvovaginal pruritus (50 mg, N=10): ^1 (10.^0) n (%)
- Subjects with any TEAE (JNJ-54861911 total, N=20): ^8 (40.0) n (%)
- TEAE: Accidental overdose (JNJ-54861911 total, N=20): ^2 (10.0) n (%)
- TEAE: Anxiety (JNJ-54861911 total, N=20): ^1 (5.0) n (%)
- TEAE: Bladder cancer (JNJ-54861911 total, N=20): ^0 n (%)
- TEAE: Conjunctivitis (JNJ-54861911 total, N=20): ^0 n (%)
- TEAE: Dementia Alzheimer’s type (JNJ-54861911 total, N=20): ^1 (5.0) n (%)
- TEAE: Depressed mood (JNJ-54861911 total, N=20): ^1 (5.0) n (%)
- TEAE: Dermatitis allergic (JNJ-54861911 total, N=20): ^1 (5.0) n (%)
- TEAE: Dizziness (JNJ-54861911 total, N=20): ^0 n (%)
- TEAE: Eczema vesicular (JNJ-54861911 total, N=20): ^1 (5.0) n (%)
- TEAE: Fatigue (JNJ-54861911 total, N=20): ^0 n (%)
- TEAE: Gastrointestinal disorders (JNJ-54861911 total, N=20): ^1 (5.0) n (%)
- TEAE: General disorders and administration site conditions (JNJ-54861911 total, N=20): ^0 n (%)
- TEAE: Headache (JNJ-54861911 total, N=20): ^1 (5.0) n (%)
- TEAE: Hypertension (JNJ-54861911 total, N=20): ^0 n (%)
- TEAE: Infections and infestations (JNJ-54861911 total, N=20): ^1 (5.0) n (%)
- TEAE: Injury, poisoning and procedural complications (JNJ-54861911 total, N=20): ^4 (20.0) n (%)
- TEAE: Insomnia (JNJ-54861911 total, N=20): ^0 n (%)
- TEAE: Irritability (JNJ-54861911 total, N=20): ^1 (5.0) n (%)
- TEAE: Musculoskeletal and connective tissue disorders (JNJ-54861911 total, N=20): ^1 (5.0) n (%)
- TEAE: Nasopharyngitis (JNJ-54861911 total, N=20): ^0 n (%)
- TEAE: Nausea (JNJ-54861911 total, N=20): ^1 (5.0) n (%)
- TEAE: Neck pain (JNJ-54861911 total, N=20): ^1 (5.0) n (%)
- TEAE: Neoplasms benign, malignant and unspecified (JNJ-54861911 total, N=20): ^0 n (%)
- TEAE: Nervous system disorders (JNJ-54861911 total, N=20): ^2 (10.0) n (%)
- TEAE: Post lumbar puncture syndrome (JNJ-54861911 total, N=20): ^3 (15.0) n (%)
